According to patent publication US20230302022A1, “PREVENTING OR MITIGATING CHEMOTHERAPY INDUCED ALOPECIA USING VITAMIN D” (priority 2016, published 2023):

Tests used:
[1] = tested on: MIAC51 (chloroleukemia cells); experiment: Chloroleukemia (MIAC51) in rats: cure / survival under chemotherapy with topical calcitriol; type: in vivo, rat; conditions: CTX, after Two Rounds of Chemotherapy
Procedure: For experiments in which rats were transplanted with chloroleukemia, on Day 5 after birth, rats were randomly divided into three groups of 45 each. All rats received 1×10^5 chloroleukemic cell line MIAC51 (i.p.) in 0.1 mL of serum free (SF) RPMI. MIAC51 were cultured in RPMI 1640 supplemented with L-glutamine and 10% fetal bovine serum at 37° C. in a 5% CO2, 100% humidity incubator. Cells were grown to 50% confluency (1.5×106 mL) collected in 50 mL conical tubes, centrifuged at 600 g×10 min. at room temperature and resuspended in SF-RPMI at a concentration of 1×10^6/mL. Group 1 rats received no further treatment. Group 2 rats received topical vehicle and CTX on day 13. […] Topical applications were performed as described above.
On day 23 after birth, a sample of blood was taken from all rats and differentials performed. Rats with leukemia were sacrificed, rats without leukemia were kept and a second differential performed on day 31, at any point if leukemia was detected, animals were sacrificed by CO2 asphyxiation.
On day 5 after birth all rats received 1×105 MIAC51 intraperitoneally in 0.1 mL of serum free (SF) RPMI. MIAC51 were cultured in RPMI 1640 supplemented with L-glutamine and 10% fetal bovine serum at […] in a 5% CO2, 100% humidity incubator. Cells were grown to 50% confluency (1.5×106 mL) collected in 50 mL conical tubes, centrifuged at 600 g for 10 minutes at room temperature and resuspended in SF-RPMI at a concentration of 1×10^6/mL prior to injection.
[…]

Long Evans rats = experiment: CIA in chloroleukemic Long Evans rats receiving multi-course chemotherapy; type: in vivo, rat; conditions: for ALOPECIA 4+ (number of rats): Cyclophosphamide (CTX)

O=P1(N(CCCl)CCCl)NCCCO1 (centres unmarked) [CTX, Cyclophosphamide]
Survival Rate, % [1]: 20%
Cured (number of rats) ([1]; of 40): 8
ALOPECIA 4+ (number of rats) (Long Evans rats; after First Round of Chemotherapy): 40
ALOPECIA 4+ (number of rats) (Long Evans rats; after Second Round of Chemotherapy): 8
extent of alopecia (grade), all rats (Long Evans rats; cyclophosphamide regimen, after the first round of chemotherapy): +4
